The results in this text go back to ChEMBL document CHEMBL5465560, “Selectivity Literature for EUbOPEN Chemogenomic Library” (2024).

The target of assay [1] is Serine/threonine-protein kinase SIK2 (Homo sapiens) (UniProt Q9H0K1). To be noted: at 10 µM.
The target in assay [2] is T1, Serine/threonine-protein kinase LATS2 (Homo sapiens) (UniProt Q9NRM7).
T1 sequence (whole entry): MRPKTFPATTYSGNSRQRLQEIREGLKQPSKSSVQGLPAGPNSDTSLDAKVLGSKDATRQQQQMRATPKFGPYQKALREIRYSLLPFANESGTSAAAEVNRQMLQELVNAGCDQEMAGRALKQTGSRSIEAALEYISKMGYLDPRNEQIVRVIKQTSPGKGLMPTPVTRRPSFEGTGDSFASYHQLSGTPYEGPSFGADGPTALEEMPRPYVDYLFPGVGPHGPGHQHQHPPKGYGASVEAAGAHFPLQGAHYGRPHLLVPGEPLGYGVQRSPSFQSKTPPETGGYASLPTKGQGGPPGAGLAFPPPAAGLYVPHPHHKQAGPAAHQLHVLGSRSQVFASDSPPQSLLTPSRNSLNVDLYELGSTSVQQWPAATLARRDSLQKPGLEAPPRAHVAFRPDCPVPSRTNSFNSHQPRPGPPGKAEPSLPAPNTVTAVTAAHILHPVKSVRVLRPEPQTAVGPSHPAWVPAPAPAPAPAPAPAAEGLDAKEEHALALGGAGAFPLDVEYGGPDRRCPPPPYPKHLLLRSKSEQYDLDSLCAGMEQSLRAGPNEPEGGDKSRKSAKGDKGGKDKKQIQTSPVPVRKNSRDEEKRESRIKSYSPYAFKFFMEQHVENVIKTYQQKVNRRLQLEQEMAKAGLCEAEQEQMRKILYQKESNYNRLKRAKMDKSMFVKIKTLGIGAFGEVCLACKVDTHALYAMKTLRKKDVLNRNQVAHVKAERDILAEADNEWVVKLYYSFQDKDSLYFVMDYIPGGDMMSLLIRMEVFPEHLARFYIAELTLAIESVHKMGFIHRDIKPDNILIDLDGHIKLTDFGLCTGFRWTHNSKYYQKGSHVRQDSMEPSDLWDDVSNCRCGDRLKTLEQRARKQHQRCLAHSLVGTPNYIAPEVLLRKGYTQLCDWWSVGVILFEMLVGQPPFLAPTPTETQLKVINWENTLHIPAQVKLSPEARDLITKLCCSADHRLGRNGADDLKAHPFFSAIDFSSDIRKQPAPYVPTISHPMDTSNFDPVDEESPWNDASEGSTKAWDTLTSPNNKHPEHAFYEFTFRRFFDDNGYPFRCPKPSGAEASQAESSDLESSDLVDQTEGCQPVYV
Particulars: at 10 µM.

In assay [3] the target is Serine/threonine-protein kinase RIO2 (Homo sapiens) (UniProt Q9BVS4). Description: Selectivity interaction (KinomeScan (DiscoverX)) EUB0001079a RIOK2. Particulars: at 1 µM.
The nature of assay [4]: Selectivity interaction (KinomeScan (DiscoverX)) EUB0001619a CDPK1. To be noted: at 1 µM.
Assay [5] deals with T2, Serine/threonine-protein kinase tousled-like 1 (Homo sapiens) (UniProt Q9UKI8).
T2 sequence (whole entry): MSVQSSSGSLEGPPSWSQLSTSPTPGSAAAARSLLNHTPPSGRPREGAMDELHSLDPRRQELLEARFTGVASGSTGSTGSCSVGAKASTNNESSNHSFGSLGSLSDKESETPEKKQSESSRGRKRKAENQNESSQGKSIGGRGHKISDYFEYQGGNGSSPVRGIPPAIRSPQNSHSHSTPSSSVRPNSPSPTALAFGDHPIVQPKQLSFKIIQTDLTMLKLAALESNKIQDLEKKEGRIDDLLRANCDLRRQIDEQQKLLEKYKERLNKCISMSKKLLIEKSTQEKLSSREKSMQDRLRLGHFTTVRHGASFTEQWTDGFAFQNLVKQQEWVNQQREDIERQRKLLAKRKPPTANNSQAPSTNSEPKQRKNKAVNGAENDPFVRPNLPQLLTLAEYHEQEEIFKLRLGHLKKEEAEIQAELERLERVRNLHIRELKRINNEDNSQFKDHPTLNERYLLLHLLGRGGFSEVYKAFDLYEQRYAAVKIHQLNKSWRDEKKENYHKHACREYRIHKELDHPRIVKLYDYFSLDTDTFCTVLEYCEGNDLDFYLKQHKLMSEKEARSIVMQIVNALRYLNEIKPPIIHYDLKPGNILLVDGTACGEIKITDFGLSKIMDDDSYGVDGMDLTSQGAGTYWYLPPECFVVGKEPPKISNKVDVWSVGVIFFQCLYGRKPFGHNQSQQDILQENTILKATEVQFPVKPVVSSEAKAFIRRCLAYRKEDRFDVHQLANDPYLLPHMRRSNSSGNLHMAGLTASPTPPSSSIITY
Briefly: Selectivity interaction (ActivX KiNativ screen (ex vivo kinase selectivity in human PBMCs)) EUB0001619a TLK1. To be noted: PBMC, at 1 µM. The assay is classed as cell-based.

Assay [6] concerns the target T3, Serine/threonine-protein kinase BRSK2 (Homo sapiens) (UniProt Q8IWQ3).
T3 sequence (whole entry): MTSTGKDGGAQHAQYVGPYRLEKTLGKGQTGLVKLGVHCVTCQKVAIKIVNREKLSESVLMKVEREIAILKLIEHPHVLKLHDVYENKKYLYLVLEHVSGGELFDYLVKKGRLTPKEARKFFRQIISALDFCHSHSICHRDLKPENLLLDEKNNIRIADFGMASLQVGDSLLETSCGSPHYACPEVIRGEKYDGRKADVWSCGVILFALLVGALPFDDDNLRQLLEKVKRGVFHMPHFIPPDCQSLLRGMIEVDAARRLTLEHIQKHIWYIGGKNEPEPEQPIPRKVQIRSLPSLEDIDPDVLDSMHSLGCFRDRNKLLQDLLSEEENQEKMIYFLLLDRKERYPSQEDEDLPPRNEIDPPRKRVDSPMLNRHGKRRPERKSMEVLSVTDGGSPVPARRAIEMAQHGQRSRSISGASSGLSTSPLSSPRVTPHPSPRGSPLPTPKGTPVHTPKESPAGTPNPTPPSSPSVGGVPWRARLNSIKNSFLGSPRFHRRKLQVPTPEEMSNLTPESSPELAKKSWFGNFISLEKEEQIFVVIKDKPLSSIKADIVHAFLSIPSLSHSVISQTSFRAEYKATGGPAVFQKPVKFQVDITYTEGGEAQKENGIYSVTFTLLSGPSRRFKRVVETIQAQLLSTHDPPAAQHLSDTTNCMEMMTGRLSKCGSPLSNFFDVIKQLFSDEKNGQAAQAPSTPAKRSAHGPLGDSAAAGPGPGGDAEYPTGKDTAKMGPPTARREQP
To be noted: at 10 µM.

Assay [7] addresses Fibroblast growth factor receptor 1 (Homo sapiens, UniProt P11362). Description: (§1) Selectivity interaction (ProQinase) EUB0000171b FGFR1.
In assay [8] the test system is Fibroblast growth factor receptor 1 (Homo sapiens), P11362 [V561M]. The assay is described as §1.
The target in assay [9] is Cyclin-dependent kinase 15 (Homo sapiens) (UniProt Q96Q40). Briefly: Selectivity interaction (KinomeScan (DiscoverX)) EUB0000595a CDK15. Particulars: at 10 µM.

SMILES strings stand for the structures.

Sequence of Fibroblast growth factor receptor 1 (P11362 22-822 limits assumed): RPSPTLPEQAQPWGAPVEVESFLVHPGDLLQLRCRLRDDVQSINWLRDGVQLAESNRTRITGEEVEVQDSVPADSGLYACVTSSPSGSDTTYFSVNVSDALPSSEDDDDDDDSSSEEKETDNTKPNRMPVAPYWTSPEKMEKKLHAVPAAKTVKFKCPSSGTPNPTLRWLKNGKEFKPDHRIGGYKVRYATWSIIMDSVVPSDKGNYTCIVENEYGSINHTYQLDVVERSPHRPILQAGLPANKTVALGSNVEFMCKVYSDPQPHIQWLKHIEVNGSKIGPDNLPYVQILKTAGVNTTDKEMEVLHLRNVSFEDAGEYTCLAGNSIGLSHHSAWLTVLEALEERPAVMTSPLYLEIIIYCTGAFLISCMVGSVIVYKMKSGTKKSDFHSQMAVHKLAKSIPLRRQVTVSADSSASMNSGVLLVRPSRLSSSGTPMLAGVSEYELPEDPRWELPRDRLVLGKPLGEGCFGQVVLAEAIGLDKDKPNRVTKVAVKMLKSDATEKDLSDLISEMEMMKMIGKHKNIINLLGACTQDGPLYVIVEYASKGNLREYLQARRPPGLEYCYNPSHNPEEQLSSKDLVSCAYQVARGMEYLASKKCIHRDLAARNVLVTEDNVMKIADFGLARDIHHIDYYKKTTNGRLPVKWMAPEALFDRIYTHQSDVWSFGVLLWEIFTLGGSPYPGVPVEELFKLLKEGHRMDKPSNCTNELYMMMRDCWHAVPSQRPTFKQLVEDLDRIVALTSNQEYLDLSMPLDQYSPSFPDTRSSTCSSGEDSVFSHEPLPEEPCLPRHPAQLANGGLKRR
Sequence of Fibroblast growth factor receptor 1 (Homo sapiens), P11362 [V561M] (P11362 whole entry V561M): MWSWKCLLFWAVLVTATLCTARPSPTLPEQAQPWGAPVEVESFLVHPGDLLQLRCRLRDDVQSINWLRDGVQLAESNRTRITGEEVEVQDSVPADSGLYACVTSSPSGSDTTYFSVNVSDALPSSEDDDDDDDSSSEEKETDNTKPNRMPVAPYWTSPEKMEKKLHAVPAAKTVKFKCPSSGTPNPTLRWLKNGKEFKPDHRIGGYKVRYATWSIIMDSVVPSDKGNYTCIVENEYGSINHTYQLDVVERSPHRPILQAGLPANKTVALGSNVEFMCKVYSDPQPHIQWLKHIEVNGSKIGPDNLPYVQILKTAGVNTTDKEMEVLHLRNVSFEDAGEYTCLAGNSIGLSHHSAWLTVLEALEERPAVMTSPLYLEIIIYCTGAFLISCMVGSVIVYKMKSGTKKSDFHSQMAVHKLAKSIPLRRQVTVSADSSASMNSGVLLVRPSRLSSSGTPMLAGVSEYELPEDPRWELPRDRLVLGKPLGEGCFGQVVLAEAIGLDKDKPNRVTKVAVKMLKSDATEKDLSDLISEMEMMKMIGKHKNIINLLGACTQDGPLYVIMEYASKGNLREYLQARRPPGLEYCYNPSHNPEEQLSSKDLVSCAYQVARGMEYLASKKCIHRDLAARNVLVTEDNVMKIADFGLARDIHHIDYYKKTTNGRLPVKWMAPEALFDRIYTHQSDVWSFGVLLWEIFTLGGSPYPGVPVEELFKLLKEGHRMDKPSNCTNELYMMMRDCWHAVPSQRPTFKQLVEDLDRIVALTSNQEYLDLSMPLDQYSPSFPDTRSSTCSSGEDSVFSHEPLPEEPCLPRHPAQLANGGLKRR
Sequence of Serine/threonine-protein kinase RIO2 (Homo sapiens) (Q9BVS4 whole entry, looked up): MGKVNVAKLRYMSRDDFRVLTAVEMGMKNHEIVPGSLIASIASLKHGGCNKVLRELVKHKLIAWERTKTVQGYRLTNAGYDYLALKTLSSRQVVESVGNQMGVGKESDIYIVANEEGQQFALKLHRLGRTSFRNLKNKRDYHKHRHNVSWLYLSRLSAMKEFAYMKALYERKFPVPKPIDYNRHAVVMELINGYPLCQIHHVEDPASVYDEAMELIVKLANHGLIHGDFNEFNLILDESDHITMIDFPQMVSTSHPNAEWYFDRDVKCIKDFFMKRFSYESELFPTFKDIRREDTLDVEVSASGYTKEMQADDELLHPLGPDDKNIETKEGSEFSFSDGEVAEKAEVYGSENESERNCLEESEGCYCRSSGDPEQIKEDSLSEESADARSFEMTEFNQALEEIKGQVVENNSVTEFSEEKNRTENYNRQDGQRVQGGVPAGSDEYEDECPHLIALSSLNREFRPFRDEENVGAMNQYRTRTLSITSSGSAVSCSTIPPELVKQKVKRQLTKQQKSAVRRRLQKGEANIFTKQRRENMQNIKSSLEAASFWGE
Sequence of Cyclin-dependent kinase 15 (Homo sapiens) (Q96Q40 whole entry): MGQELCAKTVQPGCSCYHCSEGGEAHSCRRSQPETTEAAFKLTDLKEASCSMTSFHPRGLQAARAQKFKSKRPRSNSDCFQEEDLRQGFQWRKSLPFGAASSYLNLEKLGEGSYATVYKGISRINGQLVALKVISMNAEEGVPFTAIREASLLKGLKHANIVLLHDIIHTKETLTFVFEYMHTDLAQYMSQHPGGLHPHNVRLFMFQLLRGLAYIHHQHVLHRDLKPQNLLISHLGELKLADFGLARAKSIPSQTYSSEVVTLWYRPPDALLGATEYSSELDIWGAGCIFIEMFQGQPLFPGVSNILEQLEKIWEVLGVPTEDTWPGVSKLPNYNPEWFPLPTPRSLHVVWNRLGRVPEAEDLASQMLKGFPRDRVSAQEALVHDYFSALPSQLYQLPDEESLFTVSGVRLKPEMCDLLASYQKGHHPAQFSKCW
Sequence of Serine/threonine-protein kinase SIK2 (Homo sapiens) (Q9H0K1 whole entry, looked up): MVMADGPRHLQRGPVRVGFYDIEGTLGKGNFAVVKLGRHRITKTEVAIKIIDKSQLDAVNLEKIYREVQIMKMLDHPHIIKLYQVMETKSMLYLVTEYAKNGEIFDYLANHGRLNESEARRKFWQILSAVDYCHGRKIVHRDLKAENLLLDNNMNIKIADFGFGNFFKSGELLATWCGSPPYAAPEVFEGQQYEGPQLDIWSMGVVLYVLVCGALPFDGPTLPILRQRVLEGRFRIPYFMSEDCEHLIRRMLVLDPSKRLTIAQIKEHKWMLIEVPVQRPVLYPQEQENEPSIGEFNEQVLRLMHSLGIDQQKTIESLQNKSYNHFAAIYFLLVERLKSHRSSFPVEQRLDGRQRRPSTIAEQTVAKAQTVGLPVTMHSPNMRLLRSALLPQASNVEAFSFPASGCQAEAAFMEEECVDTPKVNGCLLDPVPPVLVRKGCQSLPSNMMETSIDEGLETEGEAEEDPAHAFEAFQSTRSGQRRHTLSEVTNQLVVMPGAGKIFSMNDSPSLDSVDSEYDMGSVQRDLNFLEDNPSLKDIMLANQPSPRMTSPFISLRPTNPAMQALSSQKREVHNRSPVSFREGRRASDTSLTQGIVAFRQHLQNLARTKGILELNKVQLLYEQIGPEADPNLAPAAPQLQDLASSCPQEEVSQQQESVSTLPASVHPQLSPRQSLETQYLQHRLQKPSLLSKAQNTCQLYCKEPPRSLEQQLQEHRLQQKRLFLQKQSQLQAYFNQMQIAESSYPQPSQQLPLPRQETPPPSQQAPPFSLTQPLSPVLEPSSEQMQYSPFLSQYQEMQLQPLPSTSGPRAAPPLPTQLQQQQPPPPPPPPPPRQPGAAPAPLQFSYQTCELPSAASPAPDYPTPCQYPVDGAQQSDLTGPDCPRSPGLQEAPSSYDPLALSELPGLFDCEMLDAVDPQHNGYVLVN

For the molecule `Cc1cc([C@@H](C)Nc2ccccc2C(=O)O)c2nc(N3CCOCC3)cc(=O)n2c1` [AZD-6482], the % of control was found to be 100% in assay [1] and 63% in assay [2].

`Nc1cnc(N2CCc3cc(S(=O)(=O)Nc4c(F)cc(Cl)cc4F)cc(N4CCCC4=O)c32)nc1` [TP-020n] returned a % of control in assay [3] of 89%. In turn, `N#Cc1cccc(-c2c[nH]c3ncnc(N4CCOCC4)c23)c1` returned a % of control in assay [4] of 78%. For the same molecule, the % of inhibition in assay [5] came to 6%. In the case of `CCN(CC)CCCCNc1ncc2cc(-c3cc(OC)cc(OC)c3)c(NC(=O)NC(C)(C)C)nc2n1`, in [6], the % of control amounted to 100%. In the case of `C=CC(=O)Nc1cccc(C(=O)Nc2ccc(Nc3cc(-c4[nH]c(SC)nc4C)ccn3)cc2)c1`, the % of control turned out to be 105% in assay [7] (at 1 µM), 87% in assay [7] (at 5 µM), 99% in assay [8] (at 1 µM) and 65% in [8] (at 5 µM). Turning to `COCC(=O)NC/C=C/c1ccc2ncnc(Nc3ccc(Oc4ccc(C)nc4)c(C)c3)c2c1` [CP-724714], the % of control in assay [9] amounted to 71%.
